Data set [1] relates to h-Tel quadruplex DNA, 5'-biotin-d[AG3(T2AG3)3] (DNA, G4) AGGGTTAGGGTTAGGGTTAGGG
Briefly: SPR.

The subject of data set [2] is hairpin duplex, 5'-biotin-CGA3T3C(CT)2GA3T3CG (DNA, hairpin) CGAAATTTCCTCTGAAATTTCG
Briefly: SPR. For orientation: In SPR one partner is held on a chip, and binding of the other changes the refractive index at the surface.

Data set [3] concerns the target T1, human recombinant M2 muscarinic receptor (Homo sapiens, UniProt P08172).
T1 sequence (P08172 1-466): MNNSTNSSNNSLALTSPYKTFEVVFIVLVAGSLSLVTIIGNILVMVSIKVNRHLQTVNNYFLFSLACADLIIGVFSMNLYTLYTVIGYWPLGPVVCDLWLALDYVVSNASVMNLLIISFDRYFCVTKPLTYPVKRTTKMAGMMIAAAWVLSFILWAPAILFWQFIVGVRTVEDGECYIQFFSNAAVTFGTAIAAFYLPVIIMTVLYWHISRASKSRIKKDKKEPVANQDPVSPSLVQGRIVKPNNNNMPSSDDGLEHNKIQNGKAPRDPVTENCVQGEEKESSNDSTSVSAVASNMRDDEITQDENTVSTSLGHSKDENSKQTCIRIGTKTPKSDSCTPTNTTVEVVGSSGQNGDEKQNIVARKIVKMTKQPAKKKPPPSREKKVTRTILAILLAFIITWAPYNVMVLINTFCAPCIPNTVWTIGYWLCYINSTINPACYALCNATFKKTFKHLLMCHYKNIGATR
Briefly: M2 muscarinic receptor inhibition assay. It counts as binding. To be noted: read-out: Muscarinic (M2) % inh @1 μM. Here is the method: (§1) hEGR study and the M2 and the β2 receptor inhibition assay were performed as previously reported.
(§2) The new G-quadruplex ligands were designed in an attempt to obtain molecules with improved toxicological and on-target profiles, but maintaining the same favorable chemical and pharmacological features of the lead compound 1. With the aim of selecting the best variants, a step by step comparative analysis of their off- and on-target properties was performed. Initially the new molecules were tested for their ability to interact with and inhibit the human recombinant β2 adrenergic and M2 muscarinic receptors, and to reduce the hERG tail current in a patch clamp assay. […] Therefore, we might expect that the new ligands would impair cardiac functionality to a lesser extent than the lead molecule does.

In data set [4] the target is human recombinant β2 adrenergic receptor (Homo sapiens, UniProt P07550). The data set can be described thus: β2 adrenergic receptor inhibition assay. In kind it is binding. To be noted: read-out: β2 adrenergic % inh @1 μM. Here is the method: as §1, §2
In data set [5] the test system is h-Tel quadruplex DNA sequence 5'-d[AGGG(TTAGGG)3]-3'. Briefly: SPR binding to quadruplex DNA. On the set-up: species or system human. Here is the method:
(§3) Oligonucleotides 5’-biotin-d [AG3 (T2AG3)3] quadruplex and 5’-biotin-CGA3T3C(CT)2GA3T3CG were purchased from Midland Certified Reagent Company (Midland, TX). Purification of DNA, preparation of solutions, collection of data, and analysis of results were conducted according to methods adopted in an earlier study.
(§4) This technique takes advantage of the refractive index change elicits by the binding of the drug with the h-Tel quadruplex DNA sequence 5’-d[AGGG(TTAGGG)3]-3’ or an alternating hairpin duplex sequence immobilized on a sensor chip surface.

Data set [6] relates to alternating hairpin duplex sequence 5'-biotin-CGA3T3C(CT)2GA3T3CG. The data set can be described thus: SPR binding to duplex DNA. Here is the method:
as §3, §4

For data set [7], the system named is human colon cancer cell line HT-29. Briefly: MTT proliferation assay, HT-29. It counts as cell-based. To be noted: 96 hours. Here is the method: (§5) Normal WI-38 diploid human lung fibroblasts and the human colorectal adenocarcinoma HT29 cells were obtained from American Type Culture Collection (Manassas, VA, USA). BJ fibroblasts expressing hTERT and SV40 early region (BJ-EHLT) were obtained as previously reported. Cells were grown in Dulbecco Modified Eagle Medium (D-MEM, Invitrogen Carlsbad, CA, USA) supplemented with 10% fetal calf serum, 2 mM L-glutamin and antibiotics.
(§6) MTT (3-(4,5-Dimethylthiazol-2-yl)-2,5-diphenyltetrazolium Bromide) assay was performed in treated and untreated cells for 96 hours. Cells were incubated with MTT solution (Sigma-Aldrich), and the purple formazan crystals were dissolved in isopropanol. Optical densities (OD) at 540 nm was determined on microplate reader.
(§7) Firstly, we investigated if they were able to efficiently promote growth inhibition of tumor cells without affecting the survival of normal cells in vitro. In Table 1 we report for each compound the concentration causing 50% of growth inhibition (GI50) calculated by performing a proliferation assay in the human colon cancer cell line HT-29 or in the human ‘normal’ lung WI-38 cells. […] On the basis of results described so far, we decided to exclude from the further analysis ligand 10 for its high value of hERG inhibition (95%) (Table 1).
(In general: Formazan colour is commonly taken as a measure of viable cells.)

Data set [8] concerns human 'normal' lung WI-38 cells. Briefly: MTT proliferation assay, WI-38. The conditions noted are these: for Ratio PMX WI38/HT29: GI50 WI-38 / GI50 HT-29; for GI50: Homo sapiens, WI-38, MTT, 96 hours. It counts as cell-based. Here is the method: as §5, §6, §7
Data set [9] has as its system BJ-EHLT fibroblasts. Briefly: γ-H2AX/PCNA co-immunostaining (replication-dependent DNA damage). In kind it is cell-based, human. The conditions noted are these: 24 hrs. Here is the method:
(§8) Cells were fixed in 2% formaldehyde and permeabilized in 0.25% Triton X100 in PBS for 5 min at room temperature. For immunolabeling, cells were incubated with primary antibody, then washed in PBS and incubated with the secondary antibodies. The following primary antibodies were used: pAb and mAb anti-TRF1(Abcam Ltd.; Cambridge UK); mAb (Upstate, Lake Placid, NY) and pAb anti-γH2AX (Abcam); mAb anti-PCNA (Sigma Chemicals, Milano, Italy). The following secondary antibody were used: TRITC conjugated Goat anti Rabbit, FITC conjugated Goat anti Mouse (Jackson ImmunoResearch Europe Ltd., Suffolk, UK). Fluorescence signals were recorded by using a Leica DMIRE2 microscope equipped with a Leica DFC 350FX camera and elaborated by a Leica FW4000 deconvolution software (Leica, Solms, Germany). This system permits to focus single planes inside the cell generating 3D highresolution images. For quantitative analysis of γH2AX positivity, 200 cells on triplicate slices were scored. For TIFs analysis, in each nucleus a single plane was analyzed and at least 50 nuclei per sample were scored.
Figure 2 DNA damage activation at telomeres. BJ-EHLT fibroblasts were treated for 24 hrs with compound 1 and the indicated ligands at the doses 0.1 (light-grey bars) and 0.5 μM (dark-grey bars). […] Cells with four or more γ-H2AX/TRF1 foci were scored as TIF positive. […]

The target of the next data set is hERG (Homo sapiens, UniProt Q12809). The data set can be described thus: hERG tail current inhibition in a patch clamp assay. The conditions noted are these: read-out: hERG % inh @10 μM. It counts as cell-based. As for the experimental part: as §1, §2
A general note: The hERG channel carries a current that helps repolarise heart muscle cells.

Data set [10] has as its system BJ-EHLT fibroblasts. The data set can be described thus: γ-H2AX/TRF1 colocalization (TIFs, telomere uncapping). In kind it is cell-based, human. The conditions noted are these: 24 hrs, 0.1 and 0.5 μM. As for the experimental part: as §8
Unfortunately, we were not able to test compounds 4, 5 and the 0,5 μM dose of 3 as they were fluorescent in both red and green channels. […] To ascertain whether γ-H2AX was phosphorylated in response to dysfunctional telomeres, double immunofluorescence experiments were processed by confocal microscopy. We observed that some of the γ-H2AX foci induced by G4-ligands colocalized with TRF1, a good marker for interphase telomeres, forming the so-called telomere dysfunction-induced foci (TIFs) (Figure 2B).
Figure 2 DNA damage activation at telomeres. BJ-EHLT fibroblasts were treated for 24 hrs with compound 1 and the indicated ligands at the doses 0.1 (light-grey bars) and 0.5 μM (dark-grey bars). Cells were processed for immunofluorescence (IF) using antibodies against γ-H2AX and TRF1 to mark DNA damage and telomeres respectively. Percentages of γ-H2AX- (A) and TIF-positive (B) treated and untreated cells are reported in the histograms. (C) Mean number of TIFs in the indicated samples. Cells with four or more γ-H2AX/TRF1 foci were scored as TIF positive. Error bars indicate the standard deviation. (D) Representative images of IF of untreated and 1, 3, 6 and 8-treated BJ-EHLT cells. Enlarged views of TIFs are reported on the right of the merged images. The images were acquired with a Leica Deconvolution microscope (magnification 100x). (E) Cells treated as in (A) were processed for IF of γ-H2AX and PCNA to mark replicating cells. Percentage of γ-H2AX+/PCNA- or γ-H2AX+/PCNA + nuclei in the indicated samples are reported in the histograms.

This note sets out measurements from publication PMC4193996 (Journal of Experimental & Clinical Cancer Research : CR, 2014).

Sequence of human recombinant β2 adrenergic receptor (P07550 whole entry): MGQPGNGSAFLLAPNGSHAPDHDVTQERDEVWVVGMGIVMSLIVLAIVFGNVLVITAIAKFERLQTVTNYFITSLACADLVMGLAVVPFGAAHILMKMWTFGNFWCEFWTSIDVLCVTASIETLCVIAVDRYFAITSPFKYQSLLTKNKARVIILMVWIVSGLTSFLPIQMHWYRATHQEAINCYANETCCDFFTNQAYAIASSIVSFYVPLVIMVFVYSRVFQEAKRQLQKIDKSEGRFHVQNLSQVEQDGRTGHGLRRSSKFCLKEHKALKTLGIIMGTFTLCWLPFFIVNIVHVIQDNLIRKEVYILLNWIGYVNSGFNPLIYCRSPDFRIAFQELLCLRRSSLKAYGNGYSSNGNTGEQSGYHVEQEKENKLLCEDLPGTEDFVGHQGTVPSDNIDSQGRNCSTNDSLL
Sequence of hERG (Q12809 whole entry): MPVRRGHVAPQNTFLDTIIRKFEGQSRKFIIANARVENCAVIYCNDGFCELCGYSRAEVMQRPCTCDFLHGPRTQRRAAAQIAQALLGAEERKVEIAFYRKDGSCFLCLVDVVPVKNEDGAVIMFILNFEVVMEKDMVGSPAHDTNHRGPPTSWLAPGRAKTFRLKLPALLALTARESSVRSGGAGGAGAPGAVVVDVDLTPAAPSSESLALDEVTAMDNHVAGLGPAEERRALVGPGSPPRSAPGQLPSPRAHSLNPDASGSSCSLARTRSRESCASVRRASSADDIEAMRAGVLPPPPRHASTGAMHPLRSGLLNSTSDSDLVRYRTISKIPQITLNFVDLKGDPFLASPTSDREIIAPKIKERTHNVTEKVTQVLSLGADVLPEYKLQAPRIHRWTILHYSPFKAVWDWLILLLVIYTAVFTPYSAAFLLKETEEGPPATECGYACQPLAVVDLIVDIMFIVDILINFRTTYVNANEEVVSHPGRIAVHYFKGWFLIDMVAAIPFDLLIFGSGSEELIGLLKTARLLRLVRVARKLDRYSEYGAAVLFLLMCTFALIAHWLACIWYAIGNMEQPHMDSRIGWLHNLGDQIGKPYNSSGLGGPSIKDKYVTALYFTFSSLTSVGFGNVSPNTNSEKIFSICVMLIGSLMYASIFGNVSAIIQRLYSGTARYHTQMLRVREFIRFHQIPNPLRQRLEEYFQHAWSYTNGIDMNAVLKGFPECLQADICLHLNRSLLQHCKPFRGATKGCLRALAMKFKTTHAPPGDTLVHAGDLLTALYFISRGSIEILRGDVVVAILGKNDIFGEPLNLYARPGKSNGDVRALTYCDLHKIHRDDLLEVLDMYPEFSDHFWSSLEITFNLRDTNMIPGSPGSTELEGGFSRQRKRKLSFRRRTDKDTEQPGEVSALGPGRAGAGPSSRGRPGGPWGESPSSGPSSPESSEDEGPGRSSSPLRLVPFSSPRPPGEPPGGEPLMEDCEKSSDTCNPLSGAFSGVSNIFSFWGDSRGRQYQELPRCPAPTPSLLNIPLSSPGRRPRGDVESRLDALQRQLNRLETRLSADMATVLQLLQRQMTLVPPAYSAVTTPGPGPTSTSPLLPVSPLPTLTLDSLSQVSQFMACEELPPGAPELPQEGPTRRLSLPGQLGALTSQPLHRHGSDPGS

What is called GI50 is the concentration that inhibits growth by half. Read a high GI50 as lower sensitivity of the cells. `Cc1cc2c3c([n+](C)c4ccc(F)cc4c3c1)-c1cc(F)ccc1N2C` [Compound 1, 3,11-difluoro-6,8,13-trimethyl-8H-quino [4,3,2-kl] acridinium methosulfate, reference compound]: the K in data set [1] amounted to 9e+06 M⁻¹; in [2] it was 600000 M⁻¹. Further, the results for the inhibition at 1 µM in data set [3] and in data set [4] were 98% and 100%, respectively. Also, the “Quadruplex DNA affinity K” value in [5] was determined as 9e+06 M⁻¹. Further, the “Duplex DNA affinity K” value in [6] is 600000 M⁻¹. Besides, the GI50 in data set [7] was determined as 0.62 µM; in [8], 7.2 µM. Further, in data set [8], the “Ratio PMX WI38/HT29” value was 11,6. The “γ-H2AX foci formation relative to PCNA status” value with BJ-EHLT fibroblasts [9] is listed as “almost exclusively restricted to PCNA-positive”.

With `CN(C)CC#Cc1ccc2c3cccc4c3c([n+](C)c2c1)-c1ccccc1N4C` [Compound 7], the K in data set [1] worked out at 2.93e+07 M⁻¹; in data set [2], 900000 M⁻¹. The figures for the inhibition at 1 µM in [3] and in data set [4] were 92% and 0%, respectively. In addition, on hERG, the inhibition at 10 µM came to 37%. Also, in data set [5], the “Quadruplex DNA affinity K” value is 29,3 x10^6 M^−1. Also, the Quadruplex/duplex ratio in [5] (quadruplex vs duplex affinity) is 32,6. Besides, in data set [6], the “Duplex DNA affinity K” value is recorded as 0,9 x10^6 M^−1. Further, the GI50 in data set [7] is 0.28 µM; in data set [8], 9.36 µM. Also, in data set [8], the “Ratio PMX WI38/HT29” value was 33,4. Besides, the “telomere dysfunction (TIF formation), in words” value in the data set with BJ-EHLT fibroblasts [10] is recorded as “did not cause significant telomere dysfunction”.
